In US20070021495A1, “SULFONAMIDES AS SELECTIVE ESTROGEN RECEPTOR” (priority 2005, published 2007):
Entries after “also recorded” stand apart in the source; their conditions may differ. Where two headings read alike, the source gives them in different places.

Columns and labels:
[1] = biological target: T1, purified full-length human ERalpha (Homo sapiens, UniProt P03372); assay: Competitive radiometric binding assay, relative binding affinity (RBA), ERalpha; conditions: normalized to estradiol set at 100%; [3H]estradiol 10 nM tracer, 18-24 h at 0° C
T1 construct: purified full-length human ERalpha and ERbeta receptors purchased from Pan Vera (Madison, Wis.); purchased Pan Vera (Madison, Wis.)
T1 sequence (P03372 1-595): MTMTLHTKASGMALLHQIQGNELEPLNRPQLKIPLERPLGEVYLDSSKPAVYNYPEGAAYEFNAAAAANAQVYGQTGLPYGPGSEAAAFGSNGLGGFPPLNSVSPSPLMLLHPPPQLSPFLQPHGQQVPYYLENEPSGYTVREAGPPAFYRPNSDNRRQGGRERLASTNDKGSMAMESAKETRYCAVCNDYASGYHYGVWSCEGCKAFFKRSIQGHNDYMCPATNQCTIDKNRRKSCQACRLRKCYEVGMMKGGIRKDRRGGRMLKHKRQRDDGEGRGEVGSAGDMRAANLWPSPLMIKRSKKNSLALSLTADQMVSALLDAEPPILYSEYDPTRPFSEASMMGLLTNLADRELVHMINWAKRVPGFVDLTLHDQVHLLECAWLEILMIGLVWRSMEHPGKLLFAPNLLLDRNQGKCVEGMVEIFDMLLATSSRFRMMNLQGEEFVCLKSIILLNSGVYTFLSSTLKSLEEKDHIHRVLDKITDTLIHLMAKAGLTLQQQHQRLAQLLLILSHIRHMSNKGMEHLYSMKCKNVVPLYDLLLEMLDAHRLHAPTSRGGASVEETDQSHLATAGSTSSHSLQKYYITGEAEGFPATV
Method: Incubations were for 18-24 h at 0° C. Hydroxyapatite (BioRad, Hercules, Calif.) was used to absorb the receptor-ligand complexes and free ligand was washed away. […] The values given are the average±range or SD of two to three independent determinations.

[2] = biological target: T2, purified full-length human ERbeta (Homo sapiens, UniProt Q92731); assay: Competitive radiometric binding assay, relative binding affinity (RBA), ERbeta; conditions: for ER beta selectivity: binding selectivity ER beta over ER alpha; for Relative binding affinity (RBA) ERβ: normalized to estradiol set at 100%, [3H]estradiol 10 nM tracer, 18-24 h at 0° C; for ERβ/ERα (ratio of RBAs): ratio of RBA ERβ to RBA ERα
T2 construct: purified full-length human ERalpha and ERbeta receptors purchased from Pan Vera (Madison, Wis.); purchased Pan Vera (Madison, Wis.)
Source text: The relative binding affinities (RBAs) of potential ER ligands can be measured using purified full length human ERalpha and ERbeta receptors in a competitive radiometric binding assay, according to published procedures (Carlson, K. E.; Choi, I.; Gee, A,; Katzenellenbogen, B. S.; Katzenellenbogen, J. A. Altered ligand binding properties and enhanced stability of a constitutively active estrogen receptor: evidence that an open pocket conformation is required for ligand interaction. Biochemistry 1997, 36, 14897-14905; Katzenellenbogen, J. A.; Johnson, H. J., Jr.; Myers, H. N. Photoaffinity labels for estrogen binding proteins of rat uterus. Biochemistry 1973, 12, 4085-4092) as described in the Examples.
Relative binding affinities reported herein were determined by a competitive radiometric binding assay as previously described (Carlson, K. E.; Choi, I.; Gee, A.; Katzenellenbogen, B. S.; Katzenellenbogen, J. A. Altered ligand binding properties and enhanced stability of a constitutively active estrogen receptor: evidence that an open pocket conformation is required for ligand interaction. Biochemistry 1997, 36, 14897-14905; Katzenellenbogen, J. A.; Johnson, H. J., Jr.; Myers, H. N. Photoaffinity labels for estrogen binding proteins of rat uterus. Biochemistry 1973, 12, 4085-4092.) [3H]estradiol (10 nM) was used as tracer ([6,7-3H]estra-1,3,5,(10)triene-3,17-β-diol, 51-53 Ci/mmol, Amersham Biosciences, Piscataway, N.J.), and purified full-length human ERalpha and ERbeta receptors purchased from Pan Vera (Madison, Wis.). Incubations were for 18-24 h at 0° C. Hydroxyapatite (BioRad, Hercules, Calif.) was used to absorb the receptor-ligand complexes and free ligand was washed away. The binding affinities are expressed as relative binding affinity (RBA) values with the RBA of estradiol set to 100%. The values given are the average±range or SD of two to three independent determinations. […]

ERα = biological target: T3, ERα (Homo sapiens, UniProt P03372); assay: Antagonism of estrogen-induced 2x-pS2-ERE-Luc reporter expression in HEC-1 cells transfected with ERα; conditions: ligand + E2 at 1 nM, 24 hours, luciferase, pS2 promoter
T3 sequence (P03372 1-595): T1 sequence (P03372 1-595)
Method: (§1) Values are expressed as % of E2 activity at 1 nM and are the mean of duplicate determinations.
(§2) The data presented was measured using a reporter gene under the control of the pS2 promoter. […] Human endometrial cancer (HEC-1) cells were maintained in minimum essential medium (MEM) plus phenol red supplemented with 5% calf serum and 5% fetal calf serum. […] The cells were incubated at 37° C. in a 5% CO2-containing incubator for 5 h. The medium was then replaced with fresh improved MEM supplemented with 5% CDCS plus the desired concentrations of ligand. Cells were harvested 24 h later.

ERβ = ERβ (Homo sapiens, UniProt Q92731); assay: Antagonism of estrogen-induced 2x-pS2-ERE-Luc reporter expression in HEC-1 cells transfected with ERβ; conditions: ligand + E2 at 1 nM, 24 hours, luciferase, pS2 promoter
Method: as §1, §2

[3] = tested on: U2-OS cells stably expressing either ERα or ERβ; assay: Endogenous gene expression (cystatin D, GREB1 mRNA, quantitative PCR) in U2-OS cells stably expressing ERα or ERβ; conditions: 24 hours, mRNA by quantitative PCR
Method: Expression levels of cystatin D (A and B) or of GREB1 (C and D) mRNA were determined by quantitative PCR methods.
More specifically real-time PCR was carried out on the indicated genes to evaluate mRNA levels of ER alpha or ER beta in U2-OS stably transfected cells. […] One microgram of total RNA from each sample was reverse transcribed in a total volume of 20 μl using 200 U reverse transcriptase, 50 pmol random hexamers, and 1 mM deoxynucleotide triphosphates (New England Biolabs, Beverly, Mass.). The resulting cDNA was then diluted to a total volume of 100 μl. Each real-time PCR consisted of 5 μl of diluted reverse transcription product, 1× SYBR Green PCR Master Mix (Applied Biosystems, Foster City, Calif.), and 50 nM of forward and reverse primers. Reactions were carried out in an ABI Prism 7700 Sequence Detection System (Applied Biosystems) for 40 cycles (95 C for 15 sec, 60 C for 1 min) after an initial 10-min incubation at 95 C. The FC in expression was calculated using the DDCt comparative threshold cycle method with the ribosomal protein 36B4 mRNA as an internal control. Gene expression is normalized to an endogenous reference gene (36B4) and the FC in gene expression is then determined relative to the vehicle-treated control.

ovariectomized mice = conditions: cited from earlier work
Candida albicans = conditions: cited from earlier work

T2 sequence (Q92731 whole entry): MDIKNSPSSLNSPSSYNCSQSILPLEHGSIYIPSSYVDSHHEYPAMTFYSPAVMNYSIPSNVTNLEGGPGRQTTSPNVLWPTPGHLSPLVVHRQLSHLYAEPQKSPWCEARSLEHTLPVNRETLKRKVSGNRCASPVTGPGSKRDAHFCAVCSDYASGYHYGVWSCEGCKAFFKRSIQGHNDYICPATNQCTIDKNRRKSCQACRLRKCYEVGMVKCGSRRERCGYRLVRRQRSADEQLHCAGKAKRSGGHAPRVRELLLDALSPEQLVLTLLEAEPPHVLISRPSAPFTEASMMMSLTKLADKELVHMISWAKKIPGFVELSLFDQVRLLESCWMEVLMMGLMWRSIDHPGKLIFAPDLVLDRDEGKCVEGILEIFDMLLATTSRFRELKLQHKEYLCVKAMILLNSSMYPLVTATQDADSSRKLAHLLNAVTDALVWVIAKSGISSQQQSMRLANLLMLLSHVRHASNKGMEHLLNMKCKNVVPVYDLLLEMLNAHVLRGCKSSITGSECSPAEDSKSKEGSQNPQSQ
Sequence of ERβ (Q92731 whole entry, species assumed): as the sequence (Q92731 whole entry) above

Row | Compound | Relative binding affinity (RBA) ERα [1] [%] | Relative binding affinity (RBA) ERβ [2] [%] | ERβ/ERα (ratio of RBAs) [2] | other results
1 | CCC(C)N(c1ccc(O)cc1)S(=O)(=O)c1ccc(O)cc1 (racemic) [Compound 20h (Racemic), N-sec-Butyl-4-hydroxy-N-(4-hydroxy-phenyl)-benzenesulfonamide] | 0.006 | 0.97 | 162 | ER beta selectivity [2]: 162 fold
2 | CN(c1ccc(O)cc1)S(=O)(=O)c1ccc(O)cc1 [Compound 20a, 4-Hydroxy-N-(4-hydroxy-phenyl)-N-methyl-benzenesulfonamide] | 0.009 | 0.058 | 6.4 | 
3 | CCN(c1ccc(O)cc1)S(=O)(=O)c1ccc(O)cc1 [Compound 20b, N-Ethyl-4-hydroxy-N-(4-hydroxy-phenyl)-benzenesulfonamide] | 0.007 | 0.28 | 40 | 
4 | CCCN(c1ccc(O)cc1)S(=O)(=O)c1ccc(O)cc1 [Compound 20c, 4-Hydroxy-N-(4-hydroxy-phenyl)-N-propyl-benzenesulfonamide] | 0.026 | 2.56 | 98 | ER beta selectivity [2]: 98 fold; Antagonism on estrogen-induced gene expression through ERα (ERα; listed as FS-2): do not act as antagonists; also recorded: lack of antagonism; Antagonism on estrogen-induced gene expression through ERβ (ERβ; listed as FS-2): do not act as antagonists; also recorded: lack of antagonism; Potency in endogenous gene regulation compared to the dose response of estradiol [3]: preferential potency through ERbeta; Regulation of endogenous genes (cystatin D and GREB1) [3]: preferential regulation through ERbeta
5 | CCCCN(c1ccc(O)cc1)S(=O)(=O)c1ccc(O)cc1 [Compound 20d, N-Butyl-4-hydroxy-N-(4-hydroxy-phenyl)-benzenesulfonamide] | 0.023 | 1.15 | 50 | 
6 | CC(C)CN(c1ccc(O)cc1)S(=O)(=O)c1ccc(O)cc1 [Compound 20e, N-Isobutyl-4-hydroxy-N-(4-hydroxy-phenyl)-benzenesulfonamide] | 0.013 | 0.14 | 11 | 
7 | CCCCCN(c1ccc(O)cc1)S(=O)(=O)c1ccc(O)cc1 [Compound 20f, 4-Hydroxy-N-(4-hydroxy-phenyl)-N-pentyl-benzenesulfonamide] | 0.047 | 0.60 | 13 | 
8 | CC(C)N(c1ccc(O)cc1)S(=O)(=O)c1ccc(O)cc1 [Compound 20g, N-Isopropyl-4-hydroxy-N-(4-hydroxy-phenyl)-benzenesulfonamide] | 0.012 | 0.22 | 18 | 
9 | CCCC(C)N(c1ccc(O)cc1)S(=O)(=O)c1ccc(O)cc1 (centres unmarked) [Compound 20i, 4-Hydroxy-N-(4-hydroxy-phenyl)-N-(1-methyl-butyl)-benzenesulfonamide] | 0.013 | 1.3 | 100 | 
10 | CCC(CC)N(c1ccc(O)cc1)S(=O)(=O)c1ccc(O)cc1 [Compound 20j, N-(1-Ethyl-propyl)-4-hydroxy-N-(4-hydroxy-phenyl)-benzenesulfonamide] | 0.018 | 0.11 | 6.1 | 
11 | O=S(=O)(c1ccc(O)cc1)N(CC(F)(F)F)c1ccc(O)cc1 [Compound 20k, 4-Hydroxy-N-(4-hydroxy-phenyl)-N-(2,2,2-trifluoro-ethyl)-benzenesulfonamide] | 0.020 | 0.17 | 8.5 | 
12 | O=S(=O)(c1ccc(O)cc1)N(CCC(F)(F)F)c1ccc(O)cc1 [Compound 20l, 4-Hydroxy-N-(4-hydroxy-phenyl)-N-(3,3,3-trifluoro-propyl)benzenesulfonamide] | 0.006 | 1.27 | 212 | ER beta selectivity [2]: 212 fold; Antagonism on estrogen-induced gene expression through ERα (ERα; listed as FS-5): do not act as antagonists; also recorded: lack of antagonism; Antagonism on estrogen-induced gene expression through ERβ (ERβ; listed as FS-5): do not act as antagonists; also recorded: lack of antagonism; Potency in endogenous gene regulation compared to the dose response of estradiol [3]: preferential potency through ERbeta; Regulation of endogenous genes (cystatin D and GREB1) [3]: preferential regulation through ERbeta
13 | CCCN(c1ccc(O)c(F)c1)S(=O)(=O)c1ccc(O)cc1 [Compound 24a, N-(3-Fluoro-4-hydroxy-phenyl)-4-hydroxy-N-propyl-benzenesulfonamide] | 0.011 | 0.254 | 23 | 
14 | CCCN(c1ccc(O)c(Cl)c1)S(=O)(=O)c1ccc(O)cc1 [Compound 24b, N-(3-Chloro-4-hydroxy-phenyl)-4-hydroxy-N-propyl-benzenesulfonamide] | 0.005 | 0.038 | 7.6 | 
15 | O=S(=O)(c1ccc(O)cc1)N(CCC(F)(F)F)c1ccc(O)c(F)c1 [Compound 28a, N-(3-Fluoro-4-hydroxy-phenyl)-4-hydroxy-N-(3,3,3-trifluoro-propyl)-benzenesulfonamide] | 0.009 | 0.178 | 20 | 
16 | O=S(=O)(c1ccc(O)cc1)N(CCC(F)(F)F)c1ccc(O)c(Cl)c1 [Compound 28b, N-(3-Chloro-4-hydroxy-phenyl)-4-hydroxy-N-(3,3,3-trifluoro-propyl)-benzenesulfonamide] | 0.003 | 0.023 | 7.7 | 
17 | COc1ccc(NS(=O)(=O)c2ccc(OC)cc2)cc1 [compound II, p-methoxybenzenesulfon-p-anisidide] |  |  |  | percentage of animals which responded (ovariectomized mice; dose 50 micrograms): 100%; Activity against Candida albicans (Candida albicans): some activity
18 | COc1ccc(S(=O)(=O)N(c2ccccc2)c2ccccc2)cc1 [compound VIII] |  |  |  | percentage of animals which responded (ovariectomized mice; dose 250 micrograms): 60%
